Drawing on patent US20220409554A1, “ASCORBIC ACID AND QUINONE COMPOUND FOR CANCER TREATMENT” (IC-MedTech Corp., priority 2021, published 2022), this text covers IC50 for 2 compounds.

Common to all, as to format: cell-based
For test [1], the system named is Colon cancer cells (Colon 26). As to the kind of experiment: Antiproliferative activity, CELLTITER-GLO luminescent cell viability assay. The note with it: Mus musculus. The protocol: (§1) The antiproliferative activity of vitamin C (L-ascorbic acid) and/or compound A6 was determined in Colon26 (colon cancer), GS9L (glioblastoma), Jurkat (leukemia), MCF7 (breast cancer), and U87MG (glioblastoma). Jurkat cells were cultured in RPMI-1640 medium supplemented with 10% heat-inactivated fetal bovine serum (FBS), penicillin (100 U/mL), and streptomycin (100 μg/mL). Normal lymphocytes were cultured in the same medium supplemented with 10% FBS only. Adhesive cancer cell lines (Colon26, GS9L, MCF7, and U87MG) were cultured in DMEM supplemented with 10% FBS, penicillin (100 U/mL), and streptomycin (100 μg/mL). Adhesive non-cancer cell lines, FHC and MCF10A, were cultured in DMEM-F12 and DMEM, respectively, each supplemented with 10% FBS and growth factors. EOC2 cells were cultured in DMEM supplemented with 10% FBS. All cells were cultured in a humidified atmosphere containing 5% CO2 at 37° C. The adhesive cells were released using a trypsin-EDTA solution (0.05% of trypsin/EDTA) and subsequently washed with PBS. The cells were collected by centrifugation (1,000×g/10 min for leukemia lymphocytes; 1,500×g/15 min for normal lymphocytes; and 800×g/5 min for adhesive cells) and placed in a fresh medium without antibiotics and growth factors prior to treatment with vitamin C and/or compound A6. The cells (1×10^6 cells/mL for non-adhesive and 3×10^5 cells/mL for adhesive) were incubated with vitamin C and/or compound A6 for different time intervals in a cell incubator. At each time interval, aliquots were removed for analyses. For other cell lines, cell proliferation and viability were analyzed using the CELLTITER-GLO luminescent cell viability assay. Briefly, 100 μL aliquots of a cell suspension were placed in a well of a 96-well plate and incubated with vitamin C and/or compound A6 for 24 and 48 h in a humidified atmosphere containing 5% CO2 at 37° C. The CELLTITER-GLO reagent containing luciferin and luciferase (100 μL) was added to each well, followed by incubation. The luminescence produced by the luciferase-catalyzed conversion of luciferin into oxyluciferin by living cells was detected using a microplate reader in a chemiluminescent mode.
For orientation: In ATP-based viability assays light output follows the ATP content of the culture.

The subject of test [2] is Normal colon epithelial cells (FHC). The test is described as above. The note with it: combination of vitamin C and compound A6 (weight ratio 100:1), concentration of the named component. The protocol:
as §1

In the next test the test system is Normal microglial cells. The test is described as above. Conditions: combination of vitamin C and compound A6 (weight ratio 100:1), concentration of the named component. The protocol:
as §1

In test [3] the test system is Human glioblastoma cells (U87MG). The description is as above. The note with it: U-87 MG, combination of vitamin C and compound A6 (weight ratio 100:1), concentration of the named component. The protocol: as §1
Test [4] deals with Breast cancer cells (MCF7). The test is described as above. Conditions: Homo sapiens, combination of vitamin C and compound A6 (weight ratio 100:1), concentration of the named component. As for the experimental part: as §1
Test [5] relates to Normal breast epithelial cells (MCF10A). Described as above. Conditions: Homo sapiens, MCF-10A, combination of vitamin C and compound A6 (weight ratio 100:1), concentration of the named component. As for the experimental part: as §1
Test [6] concerns Leukemia T lymphocytes (Jurkat). Description: Antiproliferative activity, trypan blue staining and automated counting. The note with it: Homo sapiens. As for the experimental part: (§2) The antiproliferative activity of vitamin C (L-ascorbic acid) and/or compound A6 was determined in Colon26 (colon cancer), GS9L (glioblastoma), Jurkat (leukemia), MCF7 (breast cancer), and U87MG (glioblastoma). Jurkat cells were cultured in RPMI-1640 medium supplemented with 10% heat-inactivated fetal bovine serum (FBS), penicillin (100 U/mL), and streptomycin (100 μg/mL). Normal lymphocytes were cultured in the same medium supplemented with 10% FBS only. Adhesive cancer cell lines (Colon26, GS9L, MCF7, and U87MG) were cultured in DMEM supplemented with 10% FBS, penicillin (100 U/mL), and streptomycin (100 μg/mL). Adhesive non-cancer cell lines, FHC and MCF10A, were cultured in DMEM-F12 and DMEM, respectively, each supplemented with 10% FBS and growth factors. EOC2 cells were cultured in DMEM supplemented with 10% FBS. All cells were cultured in a humidified atmosphere containing 5% CO2 at 37° C. The adhesive cells were released using a trypsin-EDTA solution (0.05% of trypsin/EDTA) and subsequently washed with PBS. The cells were collected by centrifugation (1,000×g/10 min for leukemia lymphocytes; 1,500×g/15 min for normal lymphocytes; and 800×g/5 min for adhesive cells) and placed in a fresh medium without antibiotics and growth factors prior to treatment with vitamin C and/or compound A6. The cells (1×10^6 cells/mL for non-adhesive and 3×10^5 cells/mL for adhesive) were incubated with vitamin C and/or compound A6 for different time intervals in a cell incubator. At each time interval, aliquots were removed for analyses. For lymphocytes, cell proliferation and viability were analyzed by trypan blue staining and automated counting using a COUNTESS automated cell counter. Briefly, 10 μL of trypan blue (0.4%) was added to 10 μL of a cell suspension and incubated for 30 s, and 10 μL of the cell suspension was placed in a COUNTESS glass chamber. The numbers of live and dead cells in the suspension were counted automatically. The linear range of operation with the automated cell counter was 1×10^4-5×10^6 cells/mL, and the optimal cell size was in the range of […].

In another test the test system is Normal lymphocytes. Described as above. Conditions: Lymphocyte, combination of vitamin C and compound A6 (weight ratio 100:1), concentration of the named component. The protocol: as §2
Test [7] relates to Lymphoma B lymphocytes (Raji). Described as above. The note with it: Homo sapiens.
[8] abbreviates: Colon26, compound alone, read-out: IC50 (μM) Colon26.
Where [9] appears, read: combination of vitamin C and compound A6 (weight ratio 100:1), concentration of the named component, read-out: IC50.
Where [10] appears, read: compound alone, read-out: IC50 (μM) Jurkat.
Setting [11] is: compound alone, read-out: IC50 (μM) Raji.

Read-outs that look alike come from different tables or passages of the source.

As a reminder, the IC50 is the concentration needed to halve the response being measured. As for `COC1=C(OC)C(=O)C(C)=CC1=O` [Compound A6, 2,3-dimethoxy-5-methyl-1,4-benzoquinone], the IC50 in test [1] (setting [8]) was greater than 20 µM; in test [1] (setting [9]), 480 µM; in test [2] it was greater than 2000 µM; in the test on Normal microglial cells, greater than 2000 µM; in [3], 1100 µM; in test [4] it was 350 µM. The IC50 is greater than 2000 µM in [5]; 300 µM in test [6] (setting [9]); 5 µM in [6] (setting [10]); greater than 2000 µM in the test with Normal lymphocytes; 500 µM in [7] (setting [9]); greater than 20 µM in test [7] (setting [11]).

Take `O=C1O[C@H]([C@@H](O)CO)C(O)=C1O` [Vitamin C, L-ascorbic acid]: the IC50 in [1] (setting [8]) is greater than 2000 µM; in test [1] (setting [9]) it was 4.8 µM; in test [2] it was greater than 20 µM; in the test with Normal microglial cells, greater than 20 µM; in test [3] it was 11 µM; in test [4], 3.5 µM. The IC50 in test [5] was greater than 20 µM; in test [6] (setting [9]), 3 µM; in test [6] (setting [10]), 2000 µM; in the test with Normal lymphocytes it was greater than 20 µM; in test [7] (setting [9]), 5 µM; in test [7] (setting [11]) it was greater than 2000 µM.
